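Compound exposure: 48 hours, 5 concentrations, 96-well plates. GI50 is the concentration that inhibits growth by half.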 Active and inactive are the calls of the source. Rule as the data show it: active = GI50 up to about 1.1 µM and inactive = higher.
Experiments:
Assay in all cases: NCI tumour cell line growth inhibition, 48 h
[1] = test system: COLO 205
[2] = test system: EKVX
[3] = test system: HCC 2998
[4] = test system: HCT-15
[5] = test system: HL-60
[6] = test system: HT-29
[7] = test system: K562
[8] = test system: NCI-H226
[9] = test system: NCI-H23
[10] = test system: SF-268
[11] = test system: SF-295
[12] = test system: SF-539
[13] = test system: SK-MEL-28
[14] = test system: SK-MEL-5
[15] = test system: U-251
[16] = test system: UO-31
[17] = test system: M14
[18] = test system: TK-10
[19] = test system: 786-0

CNC(=O)C(C)C1CCC2(C)C=CC(=O)C(C)=C2C1O (configuration not stated)
GI50 [1]: > 47.2 µM (inactive)
GI50 [2]: > 100 µM (inactive)
GI50 [3]: 67.3 µM (inactive)
GI50 [4]: > 100 µM
GI50 [5]: > 100 µM (inactive)
GI50 [6]: > 100 µM (inactive)
GI50 [7]: > 100 µM (inactive)
GI50 [8]: > 100 µM (inactive)
GI50 [9]: > 100 µM (inactive)
GI50 [10]: > 100 µM (inactive)
GI50 [11]: > 44.8 µM (inactive)
GI50 [12]: > 100 µM (inactive)
GI50 [13]: > 100 µM (inactive)
GI50 [14]: > 39.6 µM (inactive)
GI50 [15]: > 44.8 µM (inactive)
GI50 [16]: > 43.3 µM (inactive)

c1ccc2c(c1)nc1n2CSC1
GI50 [1]: > 100 µM (inactive)
GI50 [2]: > 100 µM (inactive)
GI50 [4]: > 100 µM
GI50 [5]: > 100 µM (inactive)
GI50 [6]: > 100 µM (inactive)
GI50 [7]: > 100 µM (inactive)
GI50 [17]: > 100 µM (inactive)
GI50 [8]: > 100 µM (inactive)
GI50 [9]: > 100 µM (inactive)
GI50 [10]: > 100 µM (inactive)
GI50 [11]: > 100 µM (inactive)
GI50 [12]: > 100 µM (inactive)
GI50 [13]: > 100 µM (inactive)
GI50 [14]: > 100 µM (inactive)
GI50 [18]: > 100 µM (inactive)
GI50 [15]: > 100 µM (inactive)
GI50 [16]: > 100 µM (inactive)

CN(C)CN1C(=O)/C(=N\n2c(S)nnc2-c2ccncc2)c2ccccc21
GI50 [19]: 16.9 µM (inactive)
GI50 [1]: 38.3 µM (inactive)
GI50 [2]: > 100 µM (inactive)
GI50 [4]: 28.1 µM
GI50 [5]: 11.7 µM (inactive)
GI50 [6]: 22.2 µM (inactive)
GI50 [7]: 26.5 µM (inactive)
GI50 [17]: 24.8 µM (inactive)
GI50 [8]: > 100 µM (inactive)
GI50 [9]: 37.8 µM (inactive)
GI50 [10]: 57.5 µM (inactive)
GI50 [11]: > 100 µM (inactive)
GI50 [12]: 23.5 µM (inactive)
GI50 [13]: 57.1 µM (inactive)
GI50 [14]: 39.4 µM (inactive)
GI50 [18]: 41.9 µM (inactive)
GI50 [15]: 38.8 µM (inactive)
GI50 [16]: 29.5 µM (inactive)

O=C(CC1(O)C(=O)Nc2c(Cl)cc(Cl)cc21)c1ccco1 (configuration not stated)
GI50 [19]: 23.7 µM (inactive)
GI50 [1]: > 100 µM (inactive)
GI50 [2]: 59.2 µM (inactive)
GI50 [3]: 48.8 µM (inactive)
GI50 [4]: 40.5 µM
GI50 [5]: 20.8 µM (inactive)
GI50 [6]: 52.7 µM (inactive)
GI50 [7]: 30.3 µM (inactive)
GI50 [17]: 54 µM (inactive)
GI50 [8]: 23.3 µM (inactive)
GI50 [9]: 56.1 µM (inactive)
GI50 [10]: 50 µM (inactive)
GI50 [11]: 32 µM (inactive)
GI50 [13]: > 100 µM (inactive)
GI50 [14]: 77.6 µM (inactive)
GI50 [18]: 88.1 µM (inactive)
GI50 [15]: > 100 µM (inactive)
GI50 [16]: 98.2 µM (inactive)

COc1cc(C2C(C(=O)Nc3ccccc3C)=C(C)NC(C)=C2C(=O)Nc2ccccc2C)ccc1O
GI50 [19]: > 100 µM (inactive)
GI50 [1]: > 100 µM (inactive)
GI50 [2]: > 100 µM (inactive)
GI50 [3]: > 100 µM (inactive)
GI50 [5]: 60.4 µM (inactive)
GI50 [6]: > 100 µM (inactive)
GI50 [7]: > 100 µM (inactive)
GI50 [17]: > 100 µM (inactive)
GI50 [8]: > 100 µM (inactive)
GI50 [9]: > 100 µM (inactive)
GI50 [11]: > 100 µM (inactive)
GI50 [12]: > 100 µM (inactive)
GI50 [13]: > 100 µM (inactive)
GI50 [14]: > 100 µM (inactive)
GI50 [18]: > 100 µM (inactive)
GI50 [15]: > 100 µM (inactive)
GI50 [16]: > 100 µM (inactive)

COc1ccc(/C(Cl)=C(\C=O)c2ccc(OC)c(OC)c2)cc1
GI50 [1]: > 100 µM (inactive)
GI50 [2]: 93.8 µM (inactive)
GI50 [4]: 52.1 µM
GI50 [5]: 8.85 µM (inactive)
GI50 [6]: 29.3 µM (inactive)
GI50 [7]: 21 µM (inactive)
GI50 [17]: > 100 µM (inactive)
GI50 [8]: 34.1 µM (inactive)
GI50 [9]: 21.5 µM (inactive)
GI50 [10]: 30.1 µM (inactive)
GI50 [11]: 25.4 µM (inactive)
GI50 [12]: 23.8 µM (inactive)
GI50 [13]: > 100 µM (inactive)
GI50 [14]: 39.2 µM (inactive)
GI50 [18]: 68.2 µM (inactive)
GI50 [15]: 29.8 µM (inactive)
GI50 [16]: 40.5 µM (inactive)

Nc1cc(O)c2cc(/N=N/c3ccc(/N=N/c4ccc(/N=N/c5ccc6cc(S(=O)(=O)O)cc(S(=O)(=O)O)c6c5)c5ccccc45)c4cc(S(=O)(=O)O)ccc34)c(S(=O)(=O)O)cc2c1
GI50 [1]: > 100 µM (inactive)
GI50 [2]: > 100 µM (inactive)
GI50 [3]: > 100 µM (inactive)
GI50 [4]: 42.4 µM
GI50 [5]: 42.3 µM (inactive)
GI50 [6]: > 90.2 µM (inactive)
GI50 [7]: > 31.6 µM (inactive)
GI50 [8]: 36.7 µM (inactive)
GI50 [9]: > 100 µM (inactive)
GI50 [10]: > 100 µM (inactive)
GI50 [11]: > 53.2 µM (inactive)
GI50 [12]: > 100 µM (inactive)
GI50 [13]: > 100 µM (inactive)
GI50 [14]: > 100 µM (inactive)
GI50 [15]: > 100 µM (inactive)
GI50 [16]: 85.9 µM (inactive)

CCCCCCCCCCCC(=O)C1=C(O)CCC(O)C1=O (configuration not stated)
GI50 [19]: 19.4 µM (inactive)
GI50 [1]: 15.1 µM (inactive)
GI50 [2]: 5.86 µM (inactive)
GI50 [3]: 22 µM (inactive)
GI50 [4]: 8.89 µM
GI50 [5]: 13.5 µM (inactive)
GI50 [6]: 15.6 µM (inactive)
GI50 [7]: 7.6 µM (inactive)
GI50 [8]: 18 µM (inactive)
GI50 [9]: 3.48 µM (inactive)
GI50 [10]: 27.2 µM (inactive)
GI50 [11]: 8.17 µM (inactive)
GI50 [12]: 19.1 µM (inactive)
GI50 [13]: 16.1 µM (inactive)
GI50 [14]: 10 µM (inactive)
GI50 [18]: 18.4 µM (inactive)
GI50 [15]: 14.6 µM (inactive)
GI50 [16]: 19.7 µM (inactive)
